Source: patent US8273900B2, “Organic compounds” (Novartis AG, priority 2008, dated 2012)
pIC50: −log10 of the molar value.

Target: T1, human recombinant CRF-1 receptor (Homo sapiens, UniProt P34998)
T1 construct: expressed in transfected cells; host or cells: CHO cells (G418-selected)
T1 sequence (P34998 24-415): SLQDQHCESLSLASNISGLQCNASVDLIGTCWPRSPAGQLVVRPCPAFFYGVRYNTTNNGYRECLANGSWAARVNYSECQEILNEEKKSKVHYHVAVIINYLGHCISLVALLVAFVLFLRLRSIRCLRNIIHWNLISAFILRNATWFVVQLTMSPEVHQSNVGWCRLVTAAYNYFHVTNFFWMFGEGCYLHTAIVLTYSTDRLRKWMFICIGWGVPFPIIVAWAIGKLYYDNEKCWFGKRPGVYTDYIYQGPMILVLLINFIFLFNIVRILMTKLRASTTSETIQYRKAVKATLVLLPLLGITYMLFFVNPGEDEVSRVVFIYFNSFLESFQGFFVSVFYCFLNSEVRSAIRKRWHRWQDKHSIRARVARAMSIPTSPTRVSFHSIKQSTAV
Test: CRF-1 receptor antagonism, HTRF cAMP assay in CHO cells in the presence of 1 nM CRF
Assay type: cell-based
Settings: CHO cells expressing human recombinant CRF-1; inhibition of the effect of 1 nM CRF on cAMP
Method: The CRF-1 or CRF-2α receptor antagonistic activity of the agents of the invention has been determined in vitro in the following assay:
Chinese hamster ovary (CHO) cells expressing either the human recombinant CRF-1 or CRF-2a receptors (Chen et al., Proc Natl Acad Sci USA 90, 8967-8971, 1993; Liaw et al., Endocrinology 137, 72-77, 1996) are propagated in Dulbecco's modified Eagle medium supplemented with 10% foetal calf serum, non-essential amino acids, 100 U/ml penicillin, 100 mg/l streptomycin and 1 g/l geneticin (G418). For cyclic AMP determinations the Homogeneous Time-Resolved Fluoresce (HTRF) cAMP dynamic 2 kit (Cisbio International, France) was used as per manufacturers' instructions. CHO cells, previously cryopreserved, were thawed, centrifuged for 7 mins at 1200 rpm and resuspended in serum free media, then pipetted out onto clear bottomed black tissue culture treated 384-well microtitre plates (Corning Inc, US) at 2,000 cells per well. Compounds of the invention, prepared in DMSO, and subsequently diluted 50 fold in assay buffer (1× Hanks balanced salt solution, 0.2% (w/v) bovine serum albumin, 1.7 mM isobutylmethylxanthine and 10 mM Hepes, pH 7.4) are then added onto the cell containing plate where a further 2 fold dilution is performed and incubated for 15 min. Following incubation, buffer containing a 5 times final concentration of agonist is added to the plate and incubated for 30 min. Finally, d2 dye labelled cAMP and cryptate labeled anti-cAMP antibody, both made in lysis buffer, are added to the plate followed by a settling period of 1 hour. During the settling period cAMP produced by the cells competes with the d2 labelled cAMP for the anti-cAMP cryptate. The plate is read on the Pherastar (BMG, Germany). Increasing levels of endogenous cAMP produced by cells can be followed by a decrease of fluorescent signal and vice versa. Values represented by a change in arbitrary fluorescence units are converted into cAMP concentrations by use of a standard curve the reagents for which are supplied with the kit. Antagonist dose response curves (1 nM-30 μM) are constructed in the presence of 1 nM CRF. IC50 values of antagonists are calculated by fitting the percent inhibition of the effect of CRF by increasing concentrations of the antagonists. The fit is performed using the nonlinear logistic function of the Activitybase software package v 5.4.5.27 (IDBS, UK).

pIC50 | Compound
5.66 | Cc1ccncc1NC[C@H]1CC[C@@H](NC(=O)c2cc(C(F)(F)F)ccc2Cl)CC1 [Example 14.1, Cis-2-chloro-N-((1s,4s)-4-((4-methylpyridin-3-ylamino)methyl)cyclohexyl)-5-(trifluoromethyl)benzamide]
7.15 | Cc1ncc(Cl)cc1C(=O)N[C@H]1CC[C@H](Cn2nc(C)c(Cl)c2C)CC1 [Example 17, Trans-5-Chloro-N-[4-(4-chloro-3,5-dimethyl-pyrazol-1-ylmethyl)-cyclohexyl]-2-methyl-nicotinamide]
6.24 | Cc1ncc(Cl)cc1C(=O)N[C@H]1CC[C@H](Cn2nc(C)c(C)c2C)CC1 [Example 18, Trans-5-Chloro-2-methyl-N-[4-(3,4,5-trimethyl-pyrazol-1-ylmethyl)-cyclohexyl]-nicotinamide]
7.59 | O=C(N[C@H]1CC[C@H](CNc2cncc(F)c2)CC1)c1cc(C(F)(F)F)ccc1Cl [Example 19.1, Trans-2-chloro-N-(4-((5-fluoropyridin-3-ylamino)methyl)cyclohexyl)-5-(trifluoromethyl) benzamide]
7.64 | O=C(N[C@H]1CC[C@H](CNc2ccc(F)cn2)CC1)c1cc(C(F)(F)F)ccc1Cl [Example 19.2, Trans-2-chloro-N-(4-((5-fluoropyridin-2-ylamino)methyl)cyclohexyl)-5-(trifluoromethyl) benzamide]
7.89 | Cc1cc(NC[C@H]2CC[C@H](NC(=O)c3cc(C(F)(F)F)ccc3Cl)CC2)ncc1F [Example 19.26, Trans-2-chloro-N-(4-((5-fluoro-4-methylpyridin-2-ylamino)methyl)cyclohexyl)-5-(trifluoromethyl) benzamide]
7.51 | O=C(N[C@H]1CC[C@H](CNc2n[nH]c3c2CCCC3)CC1)c1cc(C(F)(F)F)ccc1Cl [Example 19.49, Trans-2-chloro-N-(4-((4,5,6,7-tetrahydro-1H-indazol-3-ylamino)methyl)cyclohexyl)-5-(trifluoromethyl) benzamide]
7.55 | CCc1cncc(NC[C@H]2CC[C@H](NC(=O)c3cc(C(F)(F)F)ccc3Cl)CC2)c1 [Example 19.53, Trans-2-chloro-N-(4-((5-ethylpyridin-3-ylamino)methyl)cyclohexyl)-5-(trifluoromethyl) benzamide]
7.21 | Cc1cc(NC[C@H]2CC[C@H](NC(=O)c3cc(Cl)cnc3C)CC2)ncc1F [Example 19.54, Trans-5-chloro-N-(4-((5-fluoro-4-methylpyridin-2-ylamino)methyl)cyclohexyl)-2-methylnicotinamide]
6.84 | Cc1ncc(Cl)cc1C(=O)N[C@H]1CC[C@H](CNc2n[nH]c3c2CCCC3)CC1 [Example 19.55, Trans-5-chloro-2-methyl-N-(4-((4,5,6,7-tetrahydro-1H-indazol-3-ylamino)methyl)cyclohexyl) nicotinamide]
7.08 | COc1ncc(C)cc1NC[C@H]1CC[C@H](NC(=O)c2cc(C(F)(F)F)ccc2Cl)CC1 [Example 19.56, Trans-2-chloro-N-(4-((2-methoxy-5-methylpyridin-3-ylamino)methyl)cyclohexyl)-5-(trifluoromethyl) benzamide]
7.06 | O=C(N[C@H]1CC[C@H](CNc2n[nH]c3ncccc23)CC1)c1cc(C(F)(F)F)ccc1Cl [Example 19.57, Trans-N-(4-((1H-pyrazolo[3,4-b]pyridin-3-ylamino)methyl)cyclohexyl)-2-chloro-5-(trifluoromethyl) benzamide]
7.06 | Cc1ccc2[nH]nc(NC[C@H]3CC[C@H](NC(=O)c4cc(C(F)(F)F)ccc4Cl)CC3)c2c1 [Example 19.59, Trans-2-chloro-N-(4-((5-methyl-1H-indazol-3-ylamino)methyl)cyclohexyl)-5-(trifluoromethyl) benzamide]
7.05 | O=C(N[C@H]1CC[C@H](CNc2n[nH]c3ccc(F)cc23)CC1)c1cc(C(F)(F)F)ccc1Cl [Example 19.62, Trans-2-chloro-N-(4-((5-fluoro-1H-indazol-3-ylamino)methyl)cyclohexyl)-5-(trifluoromethyl) benzamide]
7.77 | O=C(N[C@H]1CC[C@H](CNc2n[nH]c3cccc(F)c23)CC1)c1cc(C(F)(F)F)ccc1Cl [Example 19.63, Trans-2-chloro-N-(4-((4-fluoro-1H-indazol-3-ylamino)methyl)cyclohexyl)-5-(trifluoromethyl) benzamide]
7.28 | Cc1cccc2[nH]nc(NC[C@H]3CC[C@H](NC(=O)c4cc(C(F)(F)F)ccc4Cl)CC3)c12 [Example 19.65, Trans-2-chloro-N-(4-((4-methyl-1H-indazol-3-ylamino)methyl)cyclohexyl)-5-(trifluoromethyl) benzamide]
7.21 | O=C(N[C@H]1CC[C@H](CNc2n[nH]c3ccc(Cl)cc23)CC1)c1cc(C(F)(F)F)ccc1Cl [Example 19.66, Trans-2-chloro-N-(4-((5-chloro-1H-indazol-3-ylamino)methyl)cyclohexyl)-5-(trifluoromethyl) benzamide]
7.49 | COc1ccc2c(NC[C@H]3CC[C@H](NC(=O)c4cc(C(F)(F)F)ccc4Cl)CC3)n[nH]c2c1 [Example 19.68, Trans-2-chloro-N-(4-((6-methoxy-1H-indazol-3-ylamino)methyl)cyclohexyl)-5-(trifluoromethyl) benzamide]
7.66 | Cc1cc(NC[C@H]2CC[C@H](NC(=O)c3cc(C(F)(F)F)ccc3Cl)CC2)ncc1Cl [Example 19.69, Trans-2-chloro-N-(4-((5-chloro-4-methylpyridin-2-ylamino)methyl)cyclohexyl)-5-(trifluoromethyl) benzamide]
7.54 | Cn1nc(NC[C@H]2CC[C@H](NC(=O)c3cc(C(F)(F)F)ccc3Cl)CC2)c2ccccc21 [Example 19.70, Trans-2-chloro-N-(4-((1-methyl-1H-indazol-3-ylamino)methyl)cyclohexyl)-5-(trifluoromethyl) benzamide]
6.85 | Cc1n[nH]c(NC[C@H]2CC[C@H](NC(=O)c3cc(C(F)(F)F)ccc3Cl)CC2)c1-c1ccccc1 [Example 19.71, Trans-2-chloro-N-(4-((3-methyl-4-phenyl-1H-pyrazol-5-ylamino)methyl)cyclohexyl)-5-(trifluoromethyl) benzamide]
7.72 | Cc1ncc(Cl)cc1NC[C@H]1CC[C@H](NC(=O)c2cc(C(F)(F)F)ccc2Cl)CC1 [Example 19.73, Trans-2-chloro-N-(4-((5-chloro-2-methylpyridin-3-ylamino)methyl)cyclohexyl)-5-(trifluoromethyl) benzamide]
7.27 | Cc1ccc2c(NC[C@H]3CC[C@H](NC(=O)c4cc(C(F)(F)F)ccc4Cl)CC3)n[nH]c2n1 [Example 19.74, Trans-2-chloro-N-(4-((6-methyl-1H-pyrazolo[3,4-b]pyridin-3-ylamino)methyl)cyclohexyl)-5-(trifluoromethyl) benzamide]
7.27 | Cc1ncc(NC[C@H]2CC[C@H](NC(=O)c3cc(C(F)(F)F)ccc3Cl)CC2)cc1Cl [Example 19.75, Trans-2-chloro-N-(4-((5-chloro-6-methylpyridin-3-ylamino)methyl)cyclohexyl)-5-(trifluoromethyl) benzamide]

Compound | pIC50
CC(Nc1ccccc1)[C@H]1CC[C@H](NC(=O)c2cc(C(F)(F)F)ccc2Cl)CC1 (stereo partly drawn) [Example 15, Trans-2-Chloro-N-[4-(1RS-phenylamino-ethyl)-cyclohexyl]-5-trifluoromethyl-benzamide] | 6.97
